# Reference: US7996156B2, “Methods for predicting properties of molecules” (priority 2002, dated 2011)
# Read-outs that look alike come from different tables or passages of the source.
# What was measured:
# [1] = test system: estrogen receptor; settings: cited from earlier work
# [2] = Minimum inhibitory concentration of cephalosporin antibiotics; format: cell-based; set-up: unit not given here
# Description: This example describes the application of the disclosed CoSCoSA methods to model the minimum inhibitory concentration of cephalosporin antibotics, using only the through-bond (COSY-type) connections between carbons and between carbons and nitrogens in their structures. Bin sizes of 3 ppm by 3 ppm for carbon to carbon bins were used, and 10 ppm by 3 ppm for the nitrogen to carbon bins. […] The structures of the cephalosporins used in the model are shown below.
# [3] = set-up: unit not given here; settings: Minimal Inhibitory Concentration; cited from earlier work
# [4] = target: T1, aryl hydrocarbon receptor (AhR) (Rattus norvegicus, UniProt P41738); settings: cited from earlier work; for Experimental Log EC50: rodent hepatic cytosol
# T1 construct: rodent hepatic cytosol as a source of the AhR; from tissue; host or cells: rodent hepatic cytosol
# T1 sequence (P41738 10-853): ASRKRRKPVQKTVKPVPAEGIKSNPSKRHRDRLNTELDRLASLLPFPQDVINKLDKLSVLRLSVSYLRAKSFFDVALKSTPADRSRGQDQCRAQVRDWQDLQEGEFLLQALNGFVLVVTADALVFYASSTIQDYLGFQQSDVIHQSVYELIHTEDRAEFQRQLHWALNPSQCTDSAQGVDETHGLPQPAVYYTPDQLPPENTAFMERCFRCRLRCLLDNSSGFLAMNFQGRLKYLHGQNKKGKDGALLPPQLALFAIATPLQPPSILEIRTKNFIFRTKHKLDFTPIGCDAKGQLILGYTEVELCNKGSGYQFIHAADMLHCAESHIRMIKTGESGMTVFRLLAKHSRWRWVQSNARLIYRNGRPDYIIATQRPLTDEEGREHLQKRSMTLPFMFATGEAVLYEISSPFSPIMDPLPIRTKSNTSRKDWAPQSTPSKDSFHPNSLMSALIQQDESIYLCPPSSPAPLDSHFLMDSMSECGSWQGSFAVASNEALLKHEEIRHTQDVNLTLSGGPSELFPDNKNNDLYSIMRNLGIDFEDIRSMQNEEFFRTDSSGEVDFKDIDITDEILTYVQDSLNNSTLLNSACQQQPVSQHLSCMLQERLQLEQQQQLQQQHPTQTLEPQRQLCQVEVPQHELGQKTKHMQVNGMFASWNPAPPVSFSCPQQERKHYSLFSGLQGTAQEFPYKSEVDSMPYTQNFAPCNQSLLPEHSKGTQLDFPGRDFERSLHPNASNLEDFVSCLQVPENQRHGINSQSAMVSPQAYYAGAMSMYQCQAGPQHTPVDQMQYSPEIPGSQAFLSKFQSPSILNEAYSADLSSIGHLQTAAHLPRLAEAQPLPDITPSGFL
# [5] = experimental values of Waller et al. and Kuiper et al. external test sets, normalized to NCTR data
# [6] = log scale, competitive binding, [3H]-2,3,7,8-tetrachlorodioxin, previously reported training data
# [7] = previously reported competitive in vitro AhR binding, [3H]-2,3,7,8-tetrachlorodioxin radioligand, values are log EC50
smiles,measurement,setting,value
C[C@]12CC[C@@H]3c4ccc(O)cc4CC[C@H]3[C@@H]1CC(=O)[C@@H]2O [16-ketoestradiol],Normalized log (RBA),[1],−0.38
CCN1CCN(C(=O)N[C@@H](C(=O)N[C@@H]2C(=O)N3C(C(=O)O)=C(CSc4nnnn4C)CS[C@H]23)c2ccc(O)cc2)C(=O)C1=O [Cefaperazone],Log(1/MIC),[2],−1.20
same,MIC,[3],16
C=CC1=C(C(=O)O)N2C(=O)[C@@H](NC(=O)/C(=N\OCC(=O)O)c3csc(N)n3)[C@H]2SC1 [Cefixime],Log(1/MIC),[2],−.90
C[C@H]1CCCC(=O)CCC/C=C/c2cc(O)cc(O)c2C(=O)O1 [Zearalenone],Normalized log (RBA),[1]; [5],0.91
CC(C)(O/N=C(\C(=O)N[C@@H]1C(=O)N2C(C(=O)[O-])=C(C[n+]3ccccc3)CS[C@H]12)c1csc(N)n1)C(=O)O [Ceftazidime],Log(1/MIC),[2],−1.20
same,MIC,[3],16
"Oc1ccc(-c2c(Cl)cc(Cl)cc2Cl)cc1 [2,4,6,-triCl-4′-biphenylol]",Normalized log (RBA),[1]; [5],−0.16
COCC1=C(C(=O)O)N2C(=O)[C@@H](NC(=O)/C(=N\OC)c3csc(N)n3)[C@H]2SC1 [Cefpodoxime],Log(1/MIC),[2],−.30
N[C@@H](C(=O)N[C@@H]1C(=O)N2C(C(=O)O)=C(Cl)CS[C@H]12)c1ccccc1 [Cefaclor],Log(1/MIC),[2],−.90
same,MIC,[3],8
O=C(c1ccc(OCCN2CCCCC2)cc1)c1c(-c2ccc(O)cc2)sc2cc(O)ccc12 [Raloxifene],Normalized log (RBA),[1]; [5],1.34
CC1=C(C(=O)O)N2C(=O)[C@@H](NC(=O)[C@H](N)c3ccccc3)[C@H]2SC1 [Cephalexin],Log(1/MIC),[2],−.90
same,MIC,[3],8
CO/N=C(\C(=O)N[C@@H]1C(=O)N2C(C(=O)O)=CCS[C@H]12)c1csc(N)n1 [Ceftizoxime],Log(1/MIC),[2],−.90
same,MIC,[3],8
CC(C)(C)c1cccc(O)c1 [3-tert-butylphenol],Normalized log (RBA),[1]; [5],−4.82
"Oc1ccc(-c2ccc(O)cc2Cl)cc1 [2-Cl-4,4′-biphenyldiol]",Normalized log (RBA),[1]; [5],−0.61
"Clc1cc(Cl)c(-c2c(Cl)cc(Cl)cc2Cl)c(Cl)c1 [2,2′,4,4′,6,6′-hexaCl-biphenyl]",Normalized log (RBA),[1]; [5],−1.87
CC12CCC3c4ccc(O)cc4CCC3C1CC(Br)C2O (stereo not shown) [16a-bromoestradiol],Normalized log (RBA),[1]; [5],1.41
"Clc1cc(Cl)c(-c2cc(Cl)c(Cl)cc2Cl)cc1Cl [2,2′,4,4′,5,5′-hexaCl-biphenyl]",Experimental Log EC50,[4]; [6],−5.10
same,Experimental Log EC50,[4]; [7],−5.10
same,Normalized log (RBA),[1]; [5],−2.83
CC(=O)OCC1=C(C(=O)O)N2C(=O)[C@@H](NC(=O)Cc3cccs3)[C@H]2SC1 [Cephalothin],Log(1/MIC),[2],−.90
same,MIC,[3],8
"Clc1ccc(Cl)c(-c2cc(Cl)ccc2Cl)c1 [2,2′5,5′-tetraCl-biphenyl]",Normalized log (RBA),[1]; [5],−2.67
"Oc1ccc(-c2c(Cl)cccc2Cl)cc1 [2,6-dichloro-4′-biphenylol]",Normalized log (RBA),[1]; [5],−1.11
CO[C@@]1(NC(=O)Cc2cccs2)C(=O)N2C(C(=O)O)=C(COC(N)=O)CS[C@@H]21 [Cefoxitin],Log(1/MIC),[2],−1.20
same,MIC,[3],16
CO/N=C(\C(=O)N[C@@H]1C(=O)N2C(C(=O)O)=C(COC(N)=O)CS[C@H]12)c1ccco1 [Cefuroxime],Log(1/MIC),[2],−.60
same,MIC,[3],4
"Oc1cc(Cl)c(-c2c(Cl)cccc2Cl)c(Cl)c1Cl [2,2′,3,6,6′-pentaCl-4-biphenylol]",Normalized log (RBA),[1]; [5],−1.97
CC(=O)OCC1=C(C(=O)O)N2C(=O)[C@@H](NC(=O)CSc3ccncc3)[C@H]2SC1 [Cephapirin],Log(1/MIC),[2],−.90
same,MIC,[3],8
CO[C@@]1(NC(=O)CSCC#N)C(=O)N2C(C(=O)O)=C(CSc3nnnn3C)CS[C@@H]21 [Cefmetazole],Log(1/MIC),[2],−1.20
same,MIC,[3],16
CO[C@@]1(NC(=O)C2SC(=C(C(N)=O)C(=O)O)S2)C(=O)N2C(C(=O)O)=C(CSc3nnnn3C)CS[C@@H]21 (stereo partly shown) [Cefotetan],Log(1/MIC),[2],−1.20
C[C@]12CC[C@H]3[C@@H](CC=C4C[C@@H](O)CC[C@@]43C)[C@@H]1CC[C@@H]2O [5-Androstenediol],Normalized log (RBA),[1],−0.49
"Oc1ccc(-c2c(Cl)c(Cl)c(O)c(Cl)c2Cl)cc1 [2,3,5,6,tetraCl-4,4′-biphenyldiol]",Normalized log (RBA),[1]; [5],−2.18
"Clc1ccc2c(c1)oc1cc(Cl)c(Cl)c(Cl)c12 [1,2,3,7-tetraCl-dibenzofuran]",Experimental Log EC50,[4]; [6],−7.96
same,Experimental Log EC50,[4]; [7],−7.96
"Clc1cc2c(cc1Cl)Oc1c(Cl)c(Cl)c(Cl)c(Cl)c1O2 [1,2,3,4,7,8-hexaCl-dibenzodioxin]",Experimental Log EC50,[4]; [6],−7.55
same,Experimental Log EC50,[4]; [7],−7.55
"Clc1cc2c(cc1Cl)Oc1cc(Cl)c(Cl)cc1O2 [2,3,7,8-tetraCl-dibenzodioxin]",binding to the AhR (in words),[4],strong binder
same,Experimental Log EC50,[4]; [6],−9.00
same,Experimental Log EC50,[4]; [7],−9.00
"Clc1ccc2c(c1)Oc1cc(Cl)ccc1O2 [2,8-diCl-dibenzodioxin]",Experimental Log EC50,[4]; [6],−6.49
same,Experimental Log EC50,[4]; [7],−6.49
"Clc1cc2oc3c(Cl)cccc3c2c(Cl)c1Cl [1,2,3,6-tetraCl-dibenzofuran]",Experimental Log EC50,[4]; [6],−7.46
same,Experimental Log EC50,[4]; [7],−7.46
"Clc1cc2oc3c(Cl)c(Cl)c(Cl)c(Cl)c3c2cc1Cl [1,2,3,4,7,8-hexaCl-dibenzofuran]",Experimental Log EC50,[4]; [6],−7.64
same,Experimental Log EC50,[4]; [7],−7.64
"Clc1ccc(-c2cc(Cl)c(Cl)c(Cl)c2Cl)cc1 [2,3,4,4′,5-pentaCl-biphenyl]",Experimental Log EC50,[4]; [6],−6.38
same,Experimental Log EC50,[4]; [7],−6.38
CC1=C(C(=O)O)N2C(=O)[C@@H](NC(=O)[C@H](N)C3=CCC=CC3)[C@H]2SC1 [Cephradine],Log(1/MIC),[2],−.90
same,MIC,[3],8
"Clc1ccc2c(c1)Oc1cc(Cl)c(Cl)cc1O2 [2,3,7-triCl-dibenzodioxin]",Experimental Log EC50,[4]; [6],−8.15
same,Experimental Log EC50,[4]; [7],−8.15
"Oc1cc(Cl)c(-c2c(Cl)cc(Cl)cc2Cl)c(Cl)c1Cl [2,2′,3,4′,6,6′-hexaCl-4-biphenylol]",Normalized log (RBA),[1]; [5],−2.60
"Oc1c(Cl)cc(Cl)c(Cl)c1-c1cc(Cl)cc(Cl)c1Cl [2,2′,3,3′,5,5′-heaxCl-6′-biphenylol]",Normalized log (RBA),[1]; [5],−2.69
"Clc1cc2c(cc1Cl)Oc1c(Cl)cccc1O2 [2,3,6-triCl-dibenzodioxin]",Experimental Log EC50,[4]; [6],−7.66
same,Experimental Log EC50,[4]; [7],−7.66
CCC1=C(c2ccc(O)cc2)[C@@H](C)c2cc(O)ccc21 [Indenestrol A (S)],Normalized log (RBA),[1]; [5],2.39
CCC1=C(c2ccc(O)cc2)[C@H](C)c2cc(O)ccc21 [Indenestrol A (R)],Normalized log (RBA),[1]; [5],1.08
"Clc1cc(Cl)c2c(c1)oc1c(Cl)c(Cl)c(Cl)cc12 [2,3,4,7,9-pentaCl-dibenzofuran]",Experimental Log EC50,[4]; [6],−7.70
same,Experimental Log EC50,[4]; [7],−7.70
"Oc1cc(Cl)c(-c2c(Cl)ccc(Cl)c2Cl)c(Cl)c1Cl [2,2′,3,3′,6,6′-hexaCl-4-biphenylol]",Normalized log (RBA),[1]; [5],−2.74
"Clc1cc(Cl)c2c(c1)oc1c(Cl)cc(Cl)c(Cl)c12 [1,2,4,7,9-pentaCl-dibenzofuran]",Experimental Log EC50,[4]; [6],−5.70
same,Experimental Log EC50,[4]; [7],−5.70
CCC(=O)[C@@]1(C)CC[C@H]2[C@@H]3CCC4=CC(=O)CCC4=C3CC[C@@]21C [R 5020],Normalized log (RBA),[1]; [5],−1.81
